Source: patent publication US8552011B2, “6-(C2-6alkylseleno)purines and methods for treating neural measles viral infection therewith” (priority 2008, dated 2013)

How the values were obtained:
HeLa cells [1] = experiment: MTT tetrazole reduction assay, acute toxicity; assay type: cell-based, human; conditions: 24 h incubation, 65, 10, 1, 0.1, 0.01, 0.001 ng/ml, 0.1% DMSO
Source text: (§1) Cells and cell culture: HeLa cells (human cervical carcinoma) were used for these studies. Cells were maintained in DMEM medium supplemented with 10% fetal calf serum (FCS) and antibiotics in a humidified, 5% CO2 environment. Cells were passaged as required by trypsinization.
(§2) Evaluation of toxicity: Acute toxicity was quantified using a standard tetrazole reduction assay as a measure of cell proliferation/viability. Briefly, quadruplicate wells of HeLa cells (1×10^4 cells, 96-well plates) were incubated for 24 h with the ESP or DMSO as a control and the reduction of tetrazolium salt (MTT) to purple formazan by mitochondrial reductases enzymes in viable cells detected as a change in absorbance (λ=500-600 nm). Overt cytotoxicity was also evaluated qualitatively by microscopic analysis over longer exposure periods during the antiviral tests. Toxicity was considered to be evident if cell injury or loss was observed or a reduction in MTT activity of greater than twenty-five percent relative to controls was detected.
(1)—Evaluation of acute toxicity: ESP was assessed by MTT assay as described above using a series of dilutions (w/v): 65, 10, 1, 0.1, 0.01, 0.001 and 0 ng/ml. […] Toxicity was evaluated over a 24 h incubation period, a time period that corresponded to the pre-treatment phase of the anti-viral testing protocol.

HeLa cells [2] = experiment: Overt cytotoxicity by microscopic analysis during the antiviral tests; assay type: cell-based, human; conditions: for toxic effects: by 72 h PI
Source text: as §1, §2
(§3) Infection conditions: Cells (4×10^4 cells/well) were seeded in 24-well culture plates and pre-treated with ESP for 24 hr prior to infection. Cells were incubated with 100 μl of MV at the indicated MOI for 1 h at 37° C. before conditioned media containing the test compound and 5% FCS was replaced for the assay duration. MV replication was evaluated daily by microscopic analysis until cells were stained with 0.1% cresyl violet dye and scored for cytopathic effects. Similar conditions were employed for HSV-2 with the exception that infections were performed at 35° C. over a test period of 72 h.

[3] = test system: measles virus strain Edmonston (MV-E); experiment: Anti-viral screening, syncytia formation in infected HeLa cells; assay type: cell-based
Protocol: (§4) Viruses: Two strains of measles virus (MV) were evaluated in this study: 1) strain Edmonston (MV-E), the prototypical lab-adapted strain originally derived from the blood of a human patient in the acute phase of a typical infection, and 2) strain Halle (MV-H), a neurovirulent strain derived from a lymph node biopsy of a human patient with subacute sclerosing panencephalitis. One strain of herpes simplex virus (HSV) was evaluated: HSV-2 (strain G). This strain is a primary isolate derived from an active genital infection.
as §3

[4] = test system: measles virus strain Halle (MV-H); experiment: as above; assay type: cell-based; conditions: for reduction of syncytia formation: MV-H infected HeLa cells
Protocol: as §4, §3

HSV-2 (strain G) = experiment: Anti-HSV screening, plaque formation in infected HeLa cells; assay type: cell-based, herpes simplex virus; conditions: HSV-2, MOI 1, 0.1, 0.01, ESP 1, 0.5, 0.25, 0.1 μg/ml, 72 h
Protocol: as §4, §3
(4)—Anti-HSV screening: ESP was evaluated at 1, 0.5. 0.25, 0.1 and 0 μg/ml against HSV-2 at MOI=I, 0.1 and 0.01.

Structure (SMILES): CC[Se]c1ncnc2[nH]cnc12 [ESP]
- acute toxicity (MTT assay) (HeLa cells [1]): toxicity was not observed
- concentration usable in the absence of toxic effects (HeLa cells [2]): ≤ 1000 ng/mL
- toxic effects (HeLa cells [2]; 2.5 μg/ml): toxic effects were observed
- toxic effects (HeLa cells [2]; 5 μg/ml): toxic effects were observed
- overt cytotoxicity (HeLa cells [2]; 10 μg/ml, 72 h post-infection): overt cytotoxicity was observed
- overt cytotoxicity (HeLa cells [2]; 65 μg/ml, 24 h post-infection): overt cytotoxicity was observed
- toxicity during pre-treatment phase (HeLa cells [2]; 24 h pre-treatment before infection, 65-0.01 μg/ml): no toxicity was evident
- toxicity (HeLa cells [2]; concentrations less than or equal to 1 μg/ml, time-frames approaching one week): No toxicity was observed
- syncytia formation vs untreated controls ([3]; anti-MV screening, MOI 1.0, 0.1, 0.01, ESP 5-0.1 ng/ml as printed): did not significantly decrease syncytia formation
- syncytia formation, treated vs untreated wells ([3]; preliminary screening, MOI 1.0, 0.1, 0.01, Day 5 PI): syncytia formation did not differ between treated and untreated wells
- reduction of syncytia formation ([4]; 0.1 μg/ml ESP): 25%
- reduction of syncytia formation ([4]; 1 μg/ml ESP): 66%
- syncytia formation, treated vs vehicle controls ([4]; preliminary screening, MV-H, MOI 1.0, 0.1, 0.01, Day 5 PI): a decrease in syncytia formulation was evident
- viral replication as evidenced by plaque formation, vs vehicle controls (HSV-2 (strain G)): No difference in viral replication
